Measurements as given in PMC8854719, “Phase 1A/1B dose-escalation and -expansion study to evaluate the safety, pharmacokinetics, food effects and antitumor activity of pamiparib in advanced solid tumours” (British Journal of Cancer, 2021).
Entries after “also recorded” stand apart in the source; their conditions may differ. Marks after values point to notes of the source that are not given here.

Experiment: Safety and tolerability: adverse events, dose-limiting toxicities, MTD, RP2D (Phase 1A/1B)
Format: in vivo
Procedure: This was an open-label, Phase 1, dose-escalation/dose-expansion study, conducted across six study centres in Australia. The dose-escalation phase evaluated twice-daily (BID) and once-daily (QD) dosing, and the dose-expansion phase evaluated the BID RP2D from the dose-escalation phase and food effects (Fig. 1). The food-effects cohort comprised two sequences: fast followed by fed (sequence 1) and fed followed by fast (sequence 2). […] The decision to proceed to the next dose cohort was determined by the Safety Monitoring Committee and followed a modified 3 + 3 escalation scheme. […] When ≥2 DLTs occurred in the first 23 days of a dose level, the next lower dose level was declared the MTD. Safety was monitored and DLTs were assessed in all dose cohorts. […] The food-effects cohort investigated the effects of food on the PK of pamiparib in patients with advanced solid tumours.
The QD dosing regimen was added as an amendment to the protocol with the purpose of exploring the feasibility of a more convenient regimen.
Safety and tolerability were assessed throughout the study by monitoring adverse events (AEs), serious AEs, clinical laboratory measurements and physical examinations. Adverse events were categorised according to their severity (National Cancer Institute Common Terminology Criteria for Adverse Events v4.03) and relationship to the study treatment.

## C[C@]12CCCN1CC1=NNC(=O)c3cc(F)cc4[nH]c2c1c34 [pamiparib]
120 mg BID (n = 5)
  Pyrexia, AE of any grade: 1 (20.0) n (%)
  Treatment-emergent AE: 5 (100.0) n (%)
  Treatment-emergent AE: Grade 3 or higher: 5 (100.0) n (%)
  Treatment-emergent AE: Leading to death: 0 (0.0) n (%)
  Treatment-emergent AE: Leading to dose interruption: 4 (80.0) n (%)
  Treatment-emergent AE: Leading to dose modification: 4 (80.0) n (%)
  Treatment-emergent AE: Leading to dose reduction: 1 (20.0) n (%)
  Treatment-emergent AE: Leading to treatment discontinuation: 2 (40.0) n (%)
  Treatment-emergent AE: Serious: 3 (60.0) n (%)
  Treatment-related AE: 5 (100.0) n (%)
  Treatment-related AE: Grade 3 or higher: 3 (60.0) n (%)
  Treatment-related AE: Leading to death: 0 (0.0) n (%)
  Treatment-related AE: Leading to dose interruption: 3 (60.0) n (%)
  Treatment-related AE: Leading to dose modification: 3 (60.0) n (%)
  Treatment-related AE: Leading to dose reduction: 1 (20.0) n (%)
  Treatment-related AE: Leading to treatment discontinuation: 2 (40.0) n (%)
  Treatment-related AE: Serious: 1 (20.0) n (%)
  Upper respiratory tract infection, AE of any grade: 0 (0.0) n (%)
  Urinary tract infection, AE of any grade: 2 (40.0) n (%)
  Vomiting, AE of any grade: 1 (20.0) n (%)
120 mg BID, two patients, n = 1 each
  Dose-limiting toxicities observed (description): Grade 2 nausea, grade 3 fatigue, and grade 3 paresthesia; also recorded: Grade 2 nausea and Grade 2 anorexia; also recorded: Grade 2 nausea, Grade 3 fatigue and Grade 3 paraesthesia
120 mg QD
  Diarrhea, AE: 50.0%
  Fatigue, AE: 75.0%
  Nausea, AE: 50.0%
120 mg QD (n=8)
  Dose-limiting toxicity: 0 (0.0) n (%)
  Treatment-emergent AE: 8 (100.0) n (%)
  Treatment-emergent AE: Grade 3 or higher: 5 (62.5) n (%)
  Treatment-emergent AE: Leading to death: 0 (0.0) n (%)
  Treatment-emergent AE: Leading to dose interruption: 6 (75.0) n (%)
  Treatment-emergent AE: Leading to dose modification: 6 (75.0) n (%)
  Treatment-emergent AE: Leading to dose reduction: 1 (12.5) n (%)
  Treatment-emergent AE: Leading to treatment discontinuation: 0 (0.0) n (%)
  Treatment-emergent AE: Serious: 2 (25.0) n (%)
  Treatment-related AE: 6 (75.0) n (%)
  Treatment-related AE: Grade 3 or higher: 3 (37.5) n (%)
  Treatment-related AE: Leading to death: 0 (0.0) n (%)
  Treatment-related AE: Leading to dose interruption: 4 (50.0) n (%)
  Treatment-related AE: Leading to dose modification: 4 (50.0) n (%)
  Treatment-related AE: Leading to dose reduction: 1 (12.5) n (%)
  Treatment-related AE: Leading to treatment discontinuation: 0 (0.0) n (%)
  Treatment-related AE: Serious: 0 (0.0) n (%)
160 mg QD
  Diarrhea, AE: 45.5%
  Fatigue, AE: 63.6%
  Nausea, AE: 90.9%
160 mg QD (n=11)
  Dose-limiting toxicity: 1 (9.1)^d n (%)
  Treatment-emergent AE: 11 (100.0) n (%)
  Treatment-emergent AE: Grade 3 or higher: 9 (81.8) n (%)
  Treatment-emergent AE: Leading to death: 0 (0.0) n (%)
  Treatment-emergent AE: Leading to dose interruption: 7 (63.6) n (%)
  Treatment-emergent AE: Leading to dose modification: 7 (63.6) n (%)
  Treatment-emergent AE: Leading to dose reduction: 0 (0.0) n (%)
  Treatment-emergent AE: Leading to treatment discontinuation: 2 (18.2) n (%)
  Treatment-emergent AE: Serious: 4 (36.4) n (%)
  Treatment-related AE: 11 (100.0) n (%)
  Treatment-related AE: Grade 3 or higher: 7 (63.6) n (%)
  Treatment-related AE: Leading to death: 0 (0.0) n (%)
  Treatment-related AE: Leading to dose interruption: 7 (63.6) n (%)
  Treatment-related AE: Leading to dose modification: 7 (63.6) n (%)
  Treatment-related AE: Leading to dose reduction: 0 (0.0) n (%)
  Treatment-related AE: Leading to treatment discontinuation: 2 (18.2) n (%)
  Treatment-related AE: Serious: 1 (9.1) n (%)
160 mg QD, one of 11
  Patients who experienced a DLT: 9%
160 mg QD, one patient
  Dose-limiting toxicities observed (description): grade 2 nausea
101 patients
  Serious AE: anemia: 4.0%
  Serious AE: intestinal obstruction: 4.0%
  Serious AE: malignant gastrointestinal obstruction: 3.0%
